The source of these data is patent publication US9326985B2, “Heteroaryl pyridone and aza-pyridone amide compounds” (Genentech, Inc., priority 2013, dated 2016).

The structures appear in SMILES notation. Some results are limits rather than exact numbers.

The first assay concerns CD69 by B lymphocytes in human whole blood activated with goat F(ab')2 anti-human IgM. Description: CD69 Whole Blood Assay (CD69 Hu Blood FACS). The settings on record: Homo sapiens, Lymphocyte, Table 1, anti-IgM stimulation, CD69 positive of CD20 positive cells. The format is cell-based. The method, then:
CD69 is a type II C-type lectin involved in lymphocyte migration and cytokine secretion.
Human blood is obtained from healthy volunteers, with the following restrictions: 1 week drug-free, non-smokers. Blood (approximately 20 mls to test 8 compounds) is collected by venipuncture into Vacutainer® (Becton, Dickinson and Co.) tubes with sodium heparin.
Solutions of Formula I compounds at 10 mM in DMSO are diluted 1:10 in 100% DMSO, then are diluted by three-fold serial dilutions in 100% DMSO for a ten point dose-response curve. The compounds are further diluted 1:10 in PBS and then an aliquot of 5.5 μl of each compound is added in duplicate to a 2 ml 96-well plate; 5.5 μl of 10% DMSO in PBS is added as control and no-stimulus wells. Human whole blood—HWB (100 μl) is added to each well. After mixing the plates are incubated at 37° C., 5% CO2, 100% humidity for 30 minutes. Goat F(ab′)2 anti-human IgM (10 μl of a 500 μg/ml solution, 50 μg/ml final) is added to each well (except the no-stimulus wells) with mixing and the plates are incubated for an additional 20 hours. At the end of the 20 hour incubation, samples are incubated with fluorescent labeled antibodies for 30 minutes, at 37° C., 5% CO2, 100% humidity. Include induced control, unstained and single stains for compensation adjustments and initial voltage settings. Samples are then lysed with PharM Lyse™ (BD Biosciences Pharmingen) according to the manufacturer's instructions. Samples are then transferred to a 96 well plate suitable to be run on the BD Biosciences HTS 96 well system on the LSRII machine. Data acquired and Mean Fluorescence Intensity values were obtained using BD Biosciences DIVA Software. Results are initially analyzed by FACS analysis software (Flow Jo).
Consider `Cn1cc(-c2ccnc(N3CCn4c(cc5c4CC(C)(C)C5)C3=O)c2CO)cc(NC(=O)[C@H]2C[C@H]2F)c1=O` [Compound 119, (1R,2R)—N-[5-[2-(7,7-dimethyl-4-oxo-1,2,6,8-tetrahydrocyclopenta[3,4]pyrrolo[3,5-b]pyrazin-3-yl)-3-(hydroxymethyl)-4-pyridyl]-1-methyl-2-oxo-3-pyridyl]-2-fluoro-cyclopropanecarboxamide], for which the midpoint of inhibition, the IC50, lay at 122 nM.
As to `Cn1cc(-c2ccnc(N3CCn4c(cc5c4CC(C)(C)C5)C3=O)c2CO)cc(NC(=O)[C@@H]2C[C@@H]2F)c1=O` [Compound 120, (1S,2S)—N-[5-[2-(7,7-dimethyl-4-oxo-1,2,6,8-tetrahydrocyclopenta[3,4]pyrrolo[3,5-b]pyrazin-3-yl)-3-(hydroxymethyl)-4-pyridyl]-1-methyl-2-oxo-3-pyridyl]-2-fluoro-cyclopropanecarboxamide], the concentration for half-maximal inhibition (IC50) turned out to be 85.8 nM.
`Cn1cc(-c2ccnc(-n3ncc4cc(C(C)(C)C)cc(F)c4c3=O)c2CO)cc(NC(=O)C2CC2)c1=O` [Compound 125, N-[5-[2-(6-tert-butyl-8-fluoro-1-oxo-phthalazin-2-yl)-3-(hydroxymethyl)-4-pyridyl]-1-methyl-2-oxo-3-pyridyl]cyclopropanecarboxamide] displayed an IC50 of 62.5 nM. This IC50 and that of the compound before are within 1.5-fold of each other.

The assay is the same for the next values; noted with them: Lymphocyte, Table 1, anti-IgM stimulation, CD69 positive of CD20 positive cells.
Compound `Cn1cc(-c2ccnc(N3CCn4c(cc5c4CC(C)(C)C5)C3=O)c2CO)cc(NC(=O)C2CCC2)c1=O` [Compound 101, N-[5-[2-(7,7-dimethyl-4-oxo-1,2,6,8-tetrahydrocyclopenta[3,4]pyrrolo[3,5-b]pyrazin-3-yl)-3-(hydroxymethyl)-4-pyridyl]-1-methyl-2-oxo-3-pyridyl]cyclobutanecarboxamide] had an IC50 of 4200 nM.
For the compound `Cn1cc(-c2ccnc(N3CCn4c(cc5c4CC(C)(C)C5)C3=O)c2CO)cc(NC(=O)CC2CC2)c1=O` [Compound 103, 2-cyclopropyl-N-[5-[2-(7,7-dimethyl-4-oxo-1,2,6,8-tetrahydrocyclopenta[3,4]pyrrolo[3,5-b]pyrazin-3-yl)-3-(hydroxymethyl)-4-pyridyl]-1-methyl-2-oxo-3-pyridyl]acetamide], half-maximal inhibition (IC50) was put at 4900 nM.
`CCC(=O)Nc1cc(-c2ccnc(N3CCn4c(cc5c4CC(C)(C)C5)C3=O)c2CO)cn(C)c1=O` [Compound 107, N-[5-[2-(7,7-dimethyl-4-oxo-1,2,6,8-tetrahydrocyclopenta[3,4]pyrrolo[3,5-b]pyrazin-3-yl)-3-(hydroxymethyl)-4-pyridyl]-1-methyl-2-oxo-3-pyridyl]propanamide] displayed a concentration for half-maximal inhibition (IC50) of 1600 nM.
Consider `Cn1cc(-c2ccnc(N3CCn4c(cc5c4CC(C)(C)C5)C3=O)c2CO)cc(NC(=O)c2cccnc2)c1=O` [Compound 109, N-[5-[2-(7,7-dimethyl-4-oxo-1,2,6,8-tetrahydrocyclopenta[3,4]pyrrolo[3,5-b]pyrazin-3-yl)-3-(hydroxymethyl)-4-pyridyl]-1-methyl-2-oxo-3-pyridyl]pyridine-3-carboxamide], for which the IC50 was over 5200 nM.
In the case of `CC(=O)Nc1cc(-c2ccnc(N3CCn4c(cc5c4CC(C)(C)C5)C3=O)c2CO)cn(C)c1=O` [Compound 121, N-[5-[2-(7,7-dimethyl-4-oxo-1,2,6,8-tetrahydrocyclopenta[3,4]pyrrolo[3,5-b]pyrazin-3-yl)-3-(hydroxymethyl)-4-pyridyl]-1-methyl-2-oxo-3-pyridyl]acetamide], half-maximal inhibition (IC50) was put at 535 nM.

The assay is the same for the next values; noted with them: Lymphocyte, Table 2, anti-IgM stimulation, CD69 positive of CD20 positive cells.
With `Cn1cc(-c2ccnc(N3CCn4c(cc5c4CC(C)(C)C5)C3=O)c2CO)cc(NC(=O)[C@H]2CCCO2)c1=O` (stereo in doubt) [Compound 148, (2R)—N-[5-[2-(7,7-dimethyl-4-oxo-1,2,6,8-tetrahydrocyclopenta[3,4]pyrrolo[3,5-b]pyrazin-3-yl)-3-(hydroxymethyl)-4-pyridyl]-1-methyl-2-oxo-3-pyridyl]tetrahydrofuran-2-carboxamide], the concentration for half-maximal inhibition (IC50) is over 6100 nM.
As for `Cn1cc(-c2ccnc(N3CCn4c(cc5c4CC(C)(C)C5)C3=O)c2CO)cc(NC(=O)[C@@H]2CCCO2)c1=O` (stereo in doubt) [Compound 149, (2S)—N-[5-[2-(7,7-dimethyl-4-oxo-1,2,6,8-tetrahydrocyclopenta[3,4]pyrrolo[3,5-b]pyrazin-3-yl)-3-(hydroxymethyl)-4-pyridyl]-1-methyl-2-oxo-3-pyridyl]tetrahydrofuran-2-carboxamide], the half-inhibitory concentration (IC50) was over 6300 nM.
`Cn1cc(-c2ccnc(N3CCc4c(cc5n4CCCC5)C3=O)c2CO)cc(NC(=O)C2CC2)c1=O` [Compound 133, N-[5-[3-(hydroxymethyl)-2-(1-oxo-3,4,6,7,8,9-hexahydropyrido[3,4-b]indolizin-2-yl)-4-pyridyl]-1-methyl-2-oxo-3-pyridyl]cyclopropanecarboxamide]: the IC50 is over 4300 nM.
In turn, `Cn1cc(-c2ccnc(N3CCn4c(cc5c4CC(C)(C)C5)C3=O)c2CO)cc(NC(=O)C2(F)CC2)c1=O` [Compound 134, N-[5-[2-(7,7-dimethyl-4-oxo-1,2,6,8-tetrahydrocyclopenta[3,4]pyrrolo[3,5-b]pyrazin-3-yl)-3-(hydroxymethyl)-4-pyridyl]-1-methyl-2-oxo-3-pyridyl]-1-fluoro-cyclopropanecarboxamide] had a half-inhibitory concentration (IC50) of 4200 nM.
With `Cn1cc(-c2ccnc(N3CCn4c(cc5c4CC(C)(C)C5)C3=O)c2CO)cc(NC(=O)C2(O)CC2)c1=O` [Compound 135, N-[5-[2-(7,7-dimethyl-4-oxo-1,2,6,8-tetrahydrocyclopenta[3,4]pyrrolo[3,5-b]pyrazin-3-yl)-3-(hydroxymethyl)-4-pyridyl]-1-methyl-2-oxo-3-pyridyl]-1-hydroxy-cyclopropanecarboxamide], the IC50 was over 3400 nM.
For the compound `COCC(=O)Nc1cc(-c2ccnc(N3CCn4c(cc5c4CC(C)(C)C5)C3=O)c2CO)cn(C)c1=O` [Compound 157, N-[5-[2-(7,7-dimethyl-4-oxo-1,2,6,8-tetrahydrocyclopenta[3,4]pyrrolo[3,5-b]pyrazin-3-yl)-3-(hydroxymethyl)-4-pyridyl]-1-methyl-2-oxo-3-pyridyl]-2-methoxy-acetamide], the IC50 is over 4400 nM.
As to `CCCC(=O)Nc1cc(-c2ccnc(N3CCn4c(cc5c4CC(C)(C)C5)C3=O)c2CO)cn(C)c1=O` [Compound 163, N-[5-[2-(7,7-dimethyl-4-oxo-1,2,6,8-tetrahydrocyclopenta[3,4]pyrrolo[3,5-b]pyrazin-3-yl)-3-(hydroxymethyl)-4-pyridyl]-1-methyl-2-oxo-3-pyridyl]butanamide], the IC50 is 1900 nM. In other words, the single-digit micromolar range.

The same assay, now with this note: Table 1, anti-IgM stimulation, CD69 positive of CD20 positive cells.
On to `Cn1cc(-c2ccnc(N3CCn4c(cc5c4CC(C)(C)C5)C3=O)c2CO)cc(NC(=O)C2CC2F)c1=O` (centres unmarked) [Compound 117, N-[5-[2-(7,7-dimethyl-4-oxo-1,2,6,8-tetrahydrocyclopenta[3,4]pyrrolo[3,5-b]pyrazin-3-yl)-3-(hydroxymethyl)-4-pyridyl]-1-methyl-2-oxo-3-pyridyl]-2-fluoro-cyclopropanecarboxamide], for which the IC50 worked out at 567 nM.
Still for that read-out and setting: the value for `Cn1cc(-c2ccnc(N3CCn4c(cc5c4CC(C)(C)C5)C3=O)c2CO)cc(NC(=O)C2CC2F)c1=O` (centres unmarked) [Compound 118, N-[5-[2-(7,7-dimethyl-4-oxo-1,2,6,8-tetrahydrocyclopenta[3,4]pyrrolo[3,5-b]pyrazin-3-yl)-3-(hydroxymethyl)-4-pyridyl]-1-methyl-2-oxo-3-pyridyl]-2-fluoro-cyclopropanecarboxamide] was 219 nM.
